Assays:
S. aureus ATCC 6538 = test: Test 2 (DGHM), action as a function of disinfection time at 22° C., 8 × 10^8 organisms/ml; format: cell-based, Staphylococcus aureus
Description: (§1) Another test was carried out a basis of the following solutions • 100 ml of a 0.1% solution of chlorohexidine digluconate (pH 6); and • 100 ml of a 0.1% solution of Bardac22®.
(§2) The activity of these solutions, alone or in combination, was more particularly tested in respect of Staphylococcus aureus ATCC 6538, Escherichia coli ATCC 11229 and Candida albicans ATCC 10231.
(§3) The tests were conducted in accordance with the procedure described in Chapter I/2.1 and 2.2 of Tichtlinien für die Prüfung und Bewertung chemischer Desinfektionsverfahren der DGHM/Guidelines for Testing and Evaluating Chemical Disinfection Processes of DGHM as at 1.1, 1981.

human fibroblastic cells = test: Cytotoxicity check of the products on human fibroblastic cells; format: cell-based
Description: Cytotoxicity checks are conducted on the products for cellular cultures used in the tests, that is to say the human fibroblastic cells.
The cells are cultivated on a Dulbecco medium enriched with 10% fetal calf serum; at the moment of their use, the cells are washed and the same culture medium is used but without calf serum.
For each product tested or each composition, 10 tubes of cellular culture were used and after inoculation of the product, the tubes were kept under observation for 3 days.
Each product was, in succession, used pure and at dilutions of 10^−1, 10^−2, 10^−3 and added to culture tubes containing 1 ml of nutrient medium in a volume of 0.1 ml.

E. coli ATCC 11229 = test: Test 2 (DGHM), action as a function of disinfection time at 22° C., 2 × 10^9 organisms/ml; format: cell-based, Escherichia coli
Description: as §1, §2, §3

C. albicans ATCC 1031 = test: Test 2 (DGHM), action as a function of disinfection time at 22° C., 8 × 10^7 organisms/ml; format: cell-based, Candida albicans
Description: as §1, §2, §3

[H]/N=C(\N/C(=N/[H])NCCCCCCNC(=N)NC(=N)Nc1ccc(Cl)cc1)Nc1ccc(Cl)cc1 [Chlorhexidine, chlorohexidine digluconate, reference compound]
growth (S. aureus ATCC 6538; 0.05% vol/vol, 1 min): + | growth (S. aureus ATCC 6538; 0.05% vol/vol, 3 min): + | growth (S. aureus ATCC 6538; 0.05% vol/vol, 5 min): + | growth (S. aureus ATCC 6538; 0.05% vol/vol, 15 min): + | growth (S. aureus ATCC 6538; 0.05% vol/vol, 30 min): + | growth (S. aureus ATCC 6538; 0.05% vol/vol, 60 min): + | growth (S. aureus ATCC 6538; 0.1% vol/vol, 1 min): + | growth (S. aureus ATCC 6538; 0.1% vol/vol, 3 min): + | growth (S. aureus ATCC 6538; 0.1% vol/vol, 5 min): + | growth (S. aureus ATCC 6538; 0.1% vol/vol, 15 min): + | growth (S. aureus ATCC 6538; 0.1% vol/vol, 30 min): + | growth (S. aureus ATCC 6538; 0.1% vol/vol, 60 min): + | growth (S. aureus ATCC 6538; 0.5% vol/vol, 1 min): + | growth (S. aureus ATCC 6538; 0.5% vol/vol, 3 min): + | growth (S. aureus ATCC 6538; 0.5% vol/vol, 5 min): + | growth (S. aureus ATCC 6538; 0.5% vol/vol, 15 min): + | growth (S. aureus ATCC 6538; 0.5% vol/vol, 30 min): + | growth (S. aureus ATCC 6538; 0.5% vol/vol, 60 min): + | growth (S. aureus ATCC 6538; 1% vol/vol, 1 min): + | growth (S. aureus ATCC 6538; 1% vol/vol, 3 min): + | growth (S. aureus ATCC 6538; 1% vol/vol, 5 min): + | growth (S. aureus ATCC 6538; 1% vol/vol, 15 min): + | growth (S. aureus ATCC 6538; 1% vol/vol, 30 min): + | growth (S. aureus ATCC 6538; 1% vol/vol, 60 min): + | growth (S. aureus ATCC 6538; 5% vol/vol, 1 min): + | growth (S. aureus ATCC 6538; 5% vol/vol, 3 min): + | growth (S. aureus ATCC 6538; 5% vol/vol, 5 min): + | growth (S. aureus ATCC 6538; 5% vol/vol, 15 min): + | growth (S. aureus ATCC 6538; 5% vol/vol, 30 min): + | growth (S. aureus ATCC 6538; 5% vol/vol, 60 min): + | growth (S. aureus ATCC 6538; 10% vol/vol, 1 min): + | growth (S. aureus ATCC 6538; 10% vol/vol, 3 min): + | growth (S. aureus ATCC 6538; 10% vol/vol, 5 min): + | growth (S. aureus ATCC 6538; 10% vol/vol, 15 min): + | growth (S. aureus ATCC 6538; 10% vol/vol, 30 min): + | growth (S. aureus ATCC 6538; 10% vol/vol, 60 min): − | growth (S. aureus ATCC 6538; 25% vol/vol, 1 min): + | growth (S. aureus ATCC 6538; 25% vol/vol, 3 min): + | growth (S. aureus ATCC 6538; 25% vol/vol, 5 min): + | growth (S. aureus ATCC 6538; 25% vol/vol, 15 min): + | growth (S. aureus ATCC 6538; 25% vol/vol, 30 min): − | growth (S. aureus ATCC 6538; 25% vol/vol, 60 min): − | toxicity for the cell cultures (human fibroblastic cells): no toxicity | growth (E. coli ATCC 11229; 0.05% vol/vol, 1 min): + | growth (E. coli ATCC 11229; 0.05% vol/vol, 3 min): + | growth (E. coli ATCC 11229; 0.05% vol/vol, 5 min): + | growth (E. coli ATCC 11229; 0.05% vol/vol, 15 min): + | growth (E. coli ATCC 11229; 0.05% vol/vol, 30 min): + | growth (E. coli ATCC 11229; 0.05% vol/vol, 60 min): + | growth (E. coli ATCC 11229; 0.1% vol/vol, 1 min): + | growth (E. coli ATCC 11229; 0.1% vol/vol, 3 min): + | growth (E. coli ATCC 11229; 0.1% vol/vol, 5 min): + | growth (E. coli ATCC 11229; 0.1% vol/vol, 15 min): + | growth (E. coli ATCC 11229; 0.1% vol/vol, 30 min): + | growth (E. coli ATCC 11229; 0.1% vol/vol, 60 min): + | growth (E. coli ATCC 11229; 0.5% vol/vol, 1 min): + | growth (E. coli ATCC 11229; 0.5% vol/vol, 3 min): + | growth (E. coli ATCC 11229; 0.5% vol/vol, 5 min): + | growth (E. coli ATCC 11229; 0.5% vol/vol, 15 min): + | growth (E. coli ATCC 11229; 0.5% vol/vol, 30 min): + | growth (E. coli ATCC 11229; 0.5% vol/vol, 60 min): + | growth (E. coli ATCC 11229; 1% vol/vol, 1 min): + | growth (E. coli ATCC 11229; 1% vol/vol, 3 min): + | growth (E. coli ATCC 11229; 1% vol/vol, 5 min): + | growth (E. coli ATCC 11229; 1% vol/vol, 15 min): + | growth (E. coli ATCC 11229; 1% vol/vol, 30 min): + | growth (E. coli ATCC 11229; 1% vol/vol, 60 min): + | growth (E. coli ATCC 11229; 5% vol/vol, 1 min): + | growth (E. coli ATCC 11229; 5% vol/vol, 3 min): + | growth (E. coli ATCC 11229; 5% vol/vol, 5 min): + | growth (E. coli ATCC 11229; 5% vol/vol, 15 min): + | growth (E. coli ATCC 11229; 5% vol/vol, 30 min): − | growth (E. coli ATCC 11229; 5% vol/vol, 60 min): − | growth (E. coli ATCC 11229; 10% vol/vol, 1 min): + | growth (E. coli ATCC 11229; 10% vol/vol, 3 min): + | growth (E. coli ATCC 11229; 10% vol/vol, 5 min): + | growth (E. coli ATCC 11229; 10% vol/vol, 15 min): − | growth (E. coli ATCC 11229; 10% vol/vol, 30 min): − | growth (E. coli ATCC 11229; 10% vol/vol, 60 min): − | growth (E. coli ATCC 11229; 25% vol/vol, 1 min): + | growth (E. coli ATCC 11229; 25% vol/vol, 3 min): + | growth (E. coli ATCC 11229; 25% vol/vol, 5 min): + | growth (E. coli ATCC 11229; 25% vol/vol, 15 min): − | growth (E. coli ATCC 11229; 25% vol/vol, 30 min): − | growth (E. coli ATCC 11229; 25% vol/vol, 60 min): − | growth (C. albicans ATCC 1031; 0.05% vol/vol, 1 min): + | growth (C. albicans ATCC 1031; 0.05% vol/vol, 3 min): + | growth (C. albicans ATCC 1031; 0.05% vol/vol, 5 min): + | growth (C. albicans ATCC 1031; 0.05% vol/vol, 15 min): + | growth (C. albicans ATCC 1031; 0.05% vol/vol, 30 min): + | growth (C. albicans ATCC 1031; 0.05% vol/vol, 60 min): + | growth (C. albicans ATCC 1031; 0.1% vol/vol, 1 min): + | growth (C. albicans ATCC 1031; 0.1% vol/vol, 3 min): + | growth (C. albicans ATCC 1031; 0.1% vol/vol, 5 min): + | growth (C. albicans ATCC 1031; 0.1% vol/vol, 15 min): + | growth (C. albicans ATCC 1031; 0.1% vol/vol, 30 min): + | growth (C. albicans ATCC 1031; 0.1% vol/vol, 60 min): + | growth (C. albicans ATCC 1031; 0.5% vol/vol, 1 min): + | growth (C. albicans ATCC 1031; 0.5% vol/vol, 3 min): + | growth (C. albicans ATCC 1031; 0.5% vol/vol, 5 min): + | growth (C. albicans ATCC 1031; 0.5% vol/vol, 15 min): + | growth (C. albicans ATCC 1031; 0.5% vol/vol, 30 min): + | growth (C. albicans ATCC 1031; 0.5% vol/vol, 60 min): + | growth (C. albicans ATCC 1031; 1% vol/vol, 1 min): + | growth (C. albicans ATCC 1031; 1% vol/vol, 3 min): + | growth (C. albicans ATCC 1031; 1% vol/vol, 5 min): + | growth (C. albicans ATCC 1031; 1% vol/vol, 15 min): + | growth (C. albicans ATCC 1031; 1% vol/vol, 30 min): + | growth (C. albicans ATCC 1031; 1% vol/vol, 60 min): − | growth (C. albicans ATCC 1031; 5% vol/vol, 1 min): + | growth (C. albicans ATCC 1031; 5% vol/vol, 3 min): + | growth (C. albicans ATCC 1031; 5% vol/vol, 5 min): + | growth (C. albicans ATCC 1031; 5% vol/vol, 15 min): + | growth (C. albicans ATCC 1031; 5% vol/vol, 30 min): − | growth (C. albicans ATCC 1031; 5% vol/vol, 60 min): − | growth (C. albicans ATCC 1031; 10% vol/vol, 1 min): + | growth (C. albicans ATCC 1031; 10% vol/vol, 3 min): + | growth (C. albicans ATCC 1031; 10% vol/vol, 5 min): + | growth (C. albicans ATCC 1031; 10% vol/vol, 15 min): + | growth (C. albicans ATCC 1031; 10% vol/vol, 30 min): − | growth (C. albicans ATCC 1031; 10% vol/vol, 60 min): − | growth (C. albicans ATCC 1031; 25% vol/vol, 1 min): + | growth (C. albicans ATCC 1031; 25% vol/vol, 3 min): + | growth (C. albicans ATCC 1031; 25% vol/vol, 5 min): + | growth (C. albicans ATCC 1031; 25% vol/vol, 15 min): − | growth (C. albicans ATCC 1031; 25% vol/vol, 30 min): − | growth (C. albicans ATCC 1031; 25% vol/vol, 60 min): −

From US7381521B2, “Anti-pathogenic composition useful in blood preservation” (Altachem Pharma Ltd., priority 2001, dated 2008)
